How the values were obtained:
[1] = test system: Staphylococcus aureus, Escherichia coli, Pseudomonas aeruginosa, Candida albicans, Aspergillus niger; test: USP 23 preservative effectiveness test; type: cell-based; conditions: added to the 20% ethanol/30% PG formulation; data not shown
Source text: Solutions of 20% ethanol, 30% propylene glycol, 20% ethanol/30% PG, 30ethanol/20% PG, and 40% ethanol/10% PG were passed through a 0.45 micro filter and tested by the USP 23 preservative effectiveness test as described in United States Pharmacopoeia 23-NF 18, 1995 Ed., Chapter 51, page 1681, which is incorporated herein by reference. Briefly, this involves inoculating the test solution with 10^5 to 10^6 test organisms per milliliter and then determining the number of surviving organisms after 7, 14, 21, and 28 days incubation at 20-25° C. using standard microbiological methods. Day 0 data is not required by USP 23 but was included in this study. A filtration and wash method was used to remove the inactivating agents for purposes of recovering the microorganisms, but other equivalent agents can also be validated for use. The USP test organisms include the bacteria Staphylococcus aureus, Escherichia coli, and Pseudomonas aeruginosa, a yeast (Candida albicans), and a mold (Aspergillus niger). […] The yeast and mold must not increase from the initial inoculum level. The initial inoculum level can either be calculated by knowing the stock culture concentration or by using a buffer control instead of the test solution.

[2] = Solubility of paracalcin in a cosolvent system; type: physicochemical; conditions: 25° C.
Method: An adequate amount of paracalcin was weighed and added to 10 ml of cosolvent contained in a 10 ml stoppered glass test tube. Two samples were prepared for each cosolvent composition. The test tubes containing samples were shaken in a 25° C. reciprocal shaking water bath at 100 rpm. Upon complete dissolution, an aliquot was filtered through a 0.45 micron syringe filter and the filtrate diluted 1:1 with 50% methanol. The resulting diluted material was measured for the content of paracalcin.

[3] = Stability of paracalcin in a cosolvent formulation; type: physicochemical; conditions: 5 μg/ml in 20% ethanol/30% propylene glycol/50% water
Method: Samples of paracalcin (5 μg/ml) in 20% ethanol/30% propylene glycol/50% water were prepared for stability testing. In an appropriate vessel, water for injection to approximately 30% of final volume is added. Propylene glycol is added to the vessel with mixing. In a separate container, the specified amount of paracalcin is dissolved in a portion of the ethanol (190 proof non-beverage), which is obtained from the total volume of ethanol specified for the batch, and added to the vessel with mixing. An additional aliquot of the batch ethanol is used to rinse the container and the rinsing solution is added to the vessel with mixing. The remaining alcohol is added to the vessel with mixing. Q.s. with water for injection to final volume and mix for approximately 30 minutes. The solution is filtered through a 0.45 micron membrane and dispensed into ampuls. Each ampul is flame sealed and autoclaved to F016.
One set of ampuls are tested (T=0) for percent paracalcin remaining in solution and served as control (i.e., 100% remaining). A second set of ampuls are stored at 40° C. and tested at 1, 2, and 3 months. A final set are stored at 30° C. and tested at 1, 2, 3, 6, 9, 12, 18, and 24 months. The results are shown in Table 2 as paracalcin remaining as a percent of control (T=0). Each time point represents 1 to 5 data points.

Paracalcin concentration in cosolvent (solubility) ([2]; Ethanol 0.00, Propylene glycol 0.302, Water 0.698): 0.58 µg/mL
Paracalcin concentration in cosolvent (solubility) ([2]; Ethanol 0.00, Propylene glycol 0.506, Water 0.494): 14.21 µg/mL
Paracalcin concentration in cosolvent (solubility) ([2]; Ethanol 0.100, Propylene glycol 0.257, Water 0.643): 2.88 µg/mL
Paracalcin concentration in cosolvent (solubility) ([2]; Ethanol 0.199, Propylene glycol 0.207, Water 0.594): 15.94 µg/mL
Paracalcin concentration in cosolvent (solubility) ([2]; Ethanol 0.201, Propylene glycol 0.308, Water 0.491): 72.90 µg/mL
Paracalcin concentration in cosolvent (solubility) ([2]; Ethanol 0.299, Propylene glycol 0.00, Water 0.701): 6.82 µg/mL
Paracalcin concentration in cosolvent (solubility) ([2]; Ethanol 0.347, Propylene glycol 0.102, Water 0.551): 119.37 µg/mL
Paracalcin concentration in cosolvent (solubility) ([2]; Ethanol 0.498, Propylene glycol 0.00, Water 0.502): 601.63 µg/mL
paracalcin remaining as a percent of control (T=0) ([3]; 30° C., 0 months (Initial), autoclaved ampuls): 100% of control
paracalcin remaining as a percent of control (T=0) ([3]; 30° C., 1 month): 96% of control
paracalcin remaining as a percent of control (T=0) ([3]; 30° C., 2 months): 96% of control
paracalcin remaining as a percent of control (T=0) ([3]; 30° C., 3 months): 97% of control
paracalcin remaining as a percent of control (T=0) ([3]; 30° C., 6 months): 96% of control
paracalcin remaining as a percent of control (T=0) ([3]; 30° C., 9 months): 97% of control
paracalcin remaining as a percent of control (T=0) ([3]; 30° C., 12 months): 100% of control
paracalcin remaining as a percent of control (T=0) ([3]; 30° C., 18 months): 97% of control
paracalcin remaining as a percent of control (T=0) ([3]; 30° C., 24 months): 96% of control
paracalcin remaining as a percent of control (T=0) ([3]; 40° C., 0 months (Initial), autoclaved ampuls): 100% of control
paracalcin remaining as a percent of control (T=0) ([3]; 40° C., 1 month): 96% of control
paracalcin remaining as a percent of control (T=0) ([3]; 40° C., 2 months): 96% of control
paracalcin remaining as a percent of control (T=0) ([3]; 40° C., 3 months): 98% of control
SMILES: C[C@H](/C=C/[C@H](C)C(C)(C)O)[C@H]1CC[C@H]2/C(=C/C=C3C[C@@H](O)C[C@H](O)C3)CCC[C@]12C [paracalcin, 19-nor-1α,3β,25-trihydroxy-9,10-secoergosta-5,7(E),22(E)-triene]
effect of addition of paracalcin on the preservative effect of the formulation [1]: no effect
